Measured values taken from patent US9920038B2, “Methyl oxazole orexin receptor antagonists” (MERCK SHARP & DOHME CORP., priority 2014, dated 2018).
Where two headings read alike, the source gives them in different places.

How the values were obtained:
human orexin-2 receptor = human orexin-2 receptor (Homo sapiens (Human), UniProt O43614); test: hOX2R FLIPR Ca2+ flux assay; type: cell-based; details: CHO cells expressing human orexin-2 receptor; agonist 70 pM Ala-6,12 orexin-A
Protocol: In a typical experiment the OX1 and OX2 receptor antagonistic activity of the compounds of the present invention was determined in accordance with the following experimental method. For intracellular calcium measurements, Chinese hamster ovary (CHO) cells expressing the rat orexin-1 receptor or the human orexin-2 receptor, are grown in Iscove's modified DMEM containing 2 mM L-glutamine, […], 1% hypoxanthine-thymidine supplement, 100 U/ml penicillin, 100 μg/ml streptomycin and 10% heat-inactivated fetal calf serum (FCS). The cells are seeded at 20,000 cells/well into Becton-Dickinson black 384-well clear bottom sterile plates coated with poly-D-lysine. All reagents were from GIBCO-Invitrogen Corp. The seeded plates are incubated overnight at 37° C. and 5% CO2. Ala-6,12 human orexin-A as the agonist is prepared as a 1 mM stock solution in 1% bovine serum albumin (BSA) and diluted in assay buffer (HBSS containing 20 mM HEPES, 0.1% BSA and 2.5 mM probenecid, pH7.4) for use in the assay at a final concentration of 70 pM. Test compounds are prepared as 10 mM stock solution in DMSO, then diluted in 384-well plates, first in DMSO, then assay buffer. On the day of the assay, cells are washed 3 times with 100 μl assay buffer and then incubated for 60 min (37° C., 5% CO2) in 60 μl assay buffer containing […] Fluo-4AM ester, 0.02% pluronic acid, and 1% BSA. The dye loading solution is then aspirated and cells are washed 3 times with 100 μl assay buffer. 30 μl of that same buffer is left in each well. Within the Fluorescent Imaging Plate Reader (FLIPR, Molecular Devices), test compounds are added to the plate in a volume of 25 μl, incubated for 5 min and finally 25 μl of agonist is added. Fluorescence is measured for each well at 1 second intervals for 5 minutes and the height of each fluorescence peak is compared to the height of the fluorescence peak induced by 70 pM Ala-6,12 orexin-A with buffer in place of antagonist. For each antagonist, IC50 value (the concentration of compound needed to inhibit 50% of the agonist response) is determined. Alternatively, compound potency can be assessed by a radioligand binding assay (described in Bergman et. al. Bioorg. Med. Chem. Lett. 2008, 18, 1425-1430) in which the inhibition constant (Ki) is determined in membranes prepared from CHO cells expressing either the OX1 or OX2 receptor. The intrinsic orexin receptor antagonist activity of a compound which may be used in the present invention may be determined by these assays.

hOX1R = hOX1R (Homo sapiens, UniProt O43613); test: hOX1R FLIPR Ca2+ flux assay; type: cell-based
[1] = CHO cells expressing orexin-1 receptor, agonist 70 pM Ala-6,12 orexin-A, read-out: hOX1R FLIPR IC50

Sequence of human orexin-2 receptor (O43614 whole entry): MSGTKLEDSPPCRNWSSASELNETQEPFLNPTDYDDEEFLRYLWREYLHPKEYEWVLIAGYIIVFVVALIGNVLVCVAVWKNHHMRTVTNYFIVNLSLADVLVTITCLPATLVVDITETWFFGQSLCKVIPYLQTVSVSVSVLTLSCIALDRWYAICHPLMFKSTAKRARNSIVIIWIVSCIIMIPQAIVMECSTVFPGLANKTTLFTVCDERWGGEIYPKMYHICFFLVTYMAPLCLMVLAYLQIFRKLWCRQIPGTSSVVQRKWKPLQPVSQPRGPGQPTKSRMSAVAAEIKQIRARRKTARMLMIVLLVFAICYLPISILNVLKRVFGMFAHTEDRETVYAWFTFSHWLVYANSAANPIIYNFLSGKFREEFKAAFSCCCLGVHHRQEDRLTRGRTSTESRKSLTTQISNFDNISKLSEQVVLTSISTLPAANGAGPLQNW

In the case of Cc1oc(C[C@H]2CCCCN2C(=O)c2ccc(F)cc2-n2nccn2)nc1C(C)(C)O [Example 4, (R)-(4-fluoro-2-(2H-1,2,3-triazol-2-yl)phenyl)(2-((4-(2-hydroxypropan-2-yl)-5-methyloxazol-2-yl)methyl)piperidin-1-yl)methanone], the IC50 (human orexin-2 receptor) is reported as 25 nM and the IC50 (hOX1R; [1]) is reported as 39 nM.
CCOc1ccccc1C(=O)N1CCCC[C@@H]1Cc1nc(C(C)(C)O)c(C)o1 [Example 8, (R)-(2-ethoxyphenyl)(2-((4-(2-hydroxypropan-2-yl)-5-methyloxazol-2-yl)methyl)piperidin-1-yl)methanone] gave an IC50 (human orexin-2 receptor) of 28 nM and an IC50 (hOX1R; [1]) of 256 nM.
Cc1oc(C[C@H]2CCCCN2C(=O)c2cccnc2OCC(F)F)nc1C(C)(C)O [Example 16, (R)-(2-(2,2-difluoroethoxy)pyridin-3-yl)(2-((4-(2-hydroxypropan-2-yl)-5-methyloxazol-2-yl)methyl)piperidin-1-yl)methanone] showed an IC50 (human orexin-2 receptor) of 49 nM and an IC50 (hOX1R; [1]) of 373 nM.
For Cc1ccc(-n2nccn2)c(C(=O)N2CCCC[C@@H]2Cc2nc(C(C)(C)O)c(C)o2)c1 [Example 30, (R)-(2-((4-(2-hydroxypropan-2-yl)-5-methyloxazol-2-yl)methyl)piperidin-1-yl)(5-methyl-2-(2H-1,2,3-triazol-2-yl)phenyl)methanone], the IC50 (human orexin-2 receptor) was 46 nM and the IC50 (hOX1R; [1]) was 50 nM.
In the case of Cc1oc(C[C@H]2CCCCN2C(=O)c2ccccc2C2CC2)nc1C(C)(C)O [Example 3, (R)-(2-cyclopropylphenyl)(2-((4-(2-hydroxypropan-2-yl)-5-methyloxazol-2-yl)methyl)piperidin-1-yl)methanone], the IC50 (human orexin-2 receptor) is reported as 17 nM and the IC50 (hOX1R) is reported as 212 nM.
